Measured values from ChEMBL document CHEMBL3621201, “Improving the Selectivity of Engineered Protease Inhibitors: Optimizing the P2 Prime Residue Using a Versatile Cyclic Peptide Library” (J Med Chem, 2015).
Activity calls are given as the source filed them. No cut-off for these calls is given here. Bridge positions count the residues as written; N and C are the ends. Square brackets hold non-standard residues; d marks the D form. Peptide text beside a SMILES is read from it. Bip = N[C@@H](Cc1ccc(-c2ccccc2)cc1)C(=O)O

Legend:
[1] = biological target: Serine protease 1 (Homo sapiens) (UniProt P07477); experiment: Inhibition of beta-trypsin (unknown origin) at 25 nM using Bz-FVRpNA substrate by spectrophotometry method
Kallikrein-4 = Kallikrein-4 (Homo sapiens, UniProt Q9Y5K2); experiment: Inhibition of KLK4 (unknown origin) expressed in Sf9 cells at 25 nM using FVQRpNA substrate by spectrophotometry method
[2] = biological target: Coagulation factor IX (Homo sapiens) (UniProt P00740); experiment: Inhibition of factor 9a-beta (unknown origin) at 25 uM using Ac-QGRpNA substrate by spectrophotometry method
Homo sapiens = organism: Homo sapiens; experiment: Inhibition of alpha chymotrypsin (unknown origin) at 25 uM using Ac-GRPY-pNA by spectrophotometry method
[3] = biological target: Kallikrein-5 (Homo sapiens) (UniProt Q9Y337); experiment: Inhibition of KLK5 (unknown origin) expressed in Pichia pastoris X33 at 50 nM using Ac-YRSR-pNA by spectrophotometry method
Prothrombin = Prothrombin (Homo sapiens, UniProt P00734); experiment: Inhibition of alpha-thrombin (unknown origin) at 25 uM using Ac-ATPRpNA substrate by spectrophotometry method
Kallikrein-7 = Kallikrein-7 (Homo sapiens, UniProt P49862); experiment: Inhibition of KLK7 (unknown origin) expressed in Pichia pastoris X33 at 200 nM using KHLY-pNA substrate by spectrophotometry method
Plasminogen = Plasminogen (Homo sapiens, UniProt P00747); experiment: Inhibition of plasmin (unknown origin) at 50 uM using Ac-RM(O2)YRpNA substrate by spectrophotometry method
[4] = biological target: T1, Suppressor of tumorigenicity 14 protein (Homo sapiens) (UniProt Q9Y5Y6); experiment: Inhibition of matriptase (unknown origin) at 10 uM using Ac-RQFRpNA substrate by spectrophotometry method
T1 sequence (whole entry): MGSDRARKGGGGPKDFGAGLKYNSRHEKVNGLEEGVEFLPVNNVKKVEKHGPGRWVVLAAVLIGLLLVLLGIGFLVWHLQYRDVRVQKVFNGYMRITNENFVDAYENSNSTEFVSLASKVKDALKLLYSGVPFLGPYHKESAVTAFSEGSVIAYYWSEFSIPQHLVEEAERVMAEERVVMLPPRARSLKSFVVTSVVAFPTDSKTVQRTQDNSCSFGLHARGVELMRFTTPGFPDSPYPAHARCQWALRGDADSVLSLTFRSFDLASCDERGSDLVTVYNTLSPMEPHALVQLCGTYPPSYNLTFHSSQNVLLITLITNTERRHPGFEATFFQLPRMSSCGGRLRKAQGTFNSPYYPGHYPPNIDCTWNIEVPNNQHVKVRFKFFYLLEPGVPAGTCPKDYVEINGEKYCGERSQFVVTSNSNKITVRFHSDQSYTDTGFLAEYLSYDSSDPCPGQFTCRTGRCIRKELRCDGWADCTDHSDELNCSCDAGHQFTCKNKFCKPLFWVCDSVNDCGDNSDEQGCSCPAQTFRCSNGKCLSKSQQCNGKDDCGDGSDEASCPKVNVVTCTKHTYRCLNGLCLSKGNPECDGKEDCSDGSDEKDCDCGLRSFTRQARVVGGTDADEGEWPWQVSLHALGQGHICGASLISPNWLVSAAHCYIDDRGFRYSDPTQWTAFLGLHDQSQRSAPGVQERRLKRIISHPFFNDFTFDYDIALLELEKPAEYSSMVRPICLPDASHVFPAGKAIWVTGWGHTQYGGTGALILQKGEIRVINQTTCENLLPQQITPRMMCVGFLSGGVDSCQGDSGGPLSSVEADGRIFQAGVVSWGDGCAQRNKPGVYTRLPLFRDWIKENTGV

[5] = biological target: Coagulation factor XI (Homo sapiens) (UniProt P03951); experiment: Inhibition of factor 11a (unknown origin) at 10 uM using Bz-FVRpNA substrate by spectrophotometry method
[6] = biological target: T2, Coagulation factor XII (Homo sapiens) (UniProt P00748); experiment: Inhibition of factor 12a-alpha (unknown origin) at 10 uM using Ac-QRFRpNA substrate by spectrophotometry method
T2 sequence (whole entry): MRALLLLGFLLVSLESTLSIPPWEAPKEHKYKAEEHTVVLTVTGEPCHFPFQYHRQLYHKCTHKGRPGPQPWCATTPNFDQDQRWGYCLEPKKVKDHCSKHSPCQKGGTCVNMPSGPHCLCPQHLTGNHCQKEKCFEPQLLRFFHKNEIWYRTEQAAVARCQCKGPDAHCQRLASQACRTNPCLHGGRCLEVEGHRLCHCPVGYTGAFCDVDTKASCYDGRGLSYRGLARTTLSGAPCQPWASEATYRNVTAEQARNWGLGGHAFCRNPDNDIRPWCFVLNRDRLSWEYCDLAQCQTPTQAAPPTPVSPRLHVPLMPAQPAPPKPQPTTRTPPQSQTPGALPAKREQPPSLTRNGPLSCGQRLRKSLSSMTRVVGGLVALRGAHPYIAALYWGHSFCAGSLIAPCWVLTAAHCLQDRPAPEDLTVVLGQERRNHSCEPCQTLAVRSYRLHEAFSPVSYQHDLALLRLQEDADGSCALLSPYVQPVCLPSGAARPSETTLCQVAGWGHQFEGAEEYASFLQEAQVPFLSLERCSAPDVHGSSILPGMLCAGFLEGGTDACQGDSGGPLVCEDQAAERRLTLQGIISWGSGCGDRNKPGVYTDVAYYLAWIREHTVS

Sequence of Kallikrein-4 (Q9Y5K2 whole entry): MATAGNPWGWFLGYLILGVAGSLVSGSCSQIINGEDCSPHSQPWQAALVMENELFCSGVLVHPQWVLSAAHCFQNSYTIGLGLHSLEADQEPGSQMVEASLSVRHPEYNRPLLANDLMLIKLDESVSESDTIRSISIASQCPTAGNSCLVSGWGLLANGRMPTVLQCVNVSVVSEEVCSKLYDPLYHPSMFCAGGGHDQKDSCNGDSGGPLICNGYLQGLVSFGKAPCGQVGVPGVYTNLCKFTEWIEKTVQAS
Sequence of Plasminogen (P00747 97-580 limits assumed): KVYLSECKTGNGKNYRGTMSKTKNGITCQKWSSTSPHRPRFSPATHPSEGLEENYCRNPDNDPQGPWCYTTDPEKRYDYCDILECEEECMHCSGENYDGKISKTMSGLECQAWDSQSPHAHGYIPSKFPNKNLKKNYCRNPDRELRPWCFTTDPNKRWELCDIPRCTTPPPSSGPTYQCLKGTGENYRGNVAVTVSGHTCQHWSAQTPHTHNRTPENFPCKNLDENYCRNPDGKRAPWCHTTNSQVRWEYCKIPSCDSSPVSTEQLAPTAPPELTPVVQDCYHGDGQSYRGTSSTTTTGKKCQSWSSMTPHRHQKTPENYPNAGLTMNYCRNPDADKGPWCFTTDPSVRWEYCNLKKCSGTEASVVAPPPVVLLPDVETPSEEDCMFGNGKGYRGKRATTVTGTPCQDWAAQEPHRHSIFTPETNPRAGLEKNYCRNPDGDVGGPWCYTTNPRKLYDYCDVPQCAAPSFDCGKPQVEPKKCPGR
Sequence of Plasminogen (P00747 581-810 limits assumed): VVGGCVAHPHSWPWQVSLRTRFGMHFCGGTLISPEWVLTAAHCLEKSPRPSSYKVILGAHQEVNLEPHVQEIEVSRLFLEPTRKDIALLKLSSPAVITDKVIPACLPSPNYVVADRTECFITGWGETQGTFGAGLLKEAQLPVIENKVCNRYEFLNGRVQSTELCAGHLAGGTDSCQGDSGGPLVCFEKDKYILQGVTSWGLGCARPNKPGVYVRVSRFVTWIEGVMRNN
Sequence of Serine protease 1 (Homo sapiens) (P07477 whole entry): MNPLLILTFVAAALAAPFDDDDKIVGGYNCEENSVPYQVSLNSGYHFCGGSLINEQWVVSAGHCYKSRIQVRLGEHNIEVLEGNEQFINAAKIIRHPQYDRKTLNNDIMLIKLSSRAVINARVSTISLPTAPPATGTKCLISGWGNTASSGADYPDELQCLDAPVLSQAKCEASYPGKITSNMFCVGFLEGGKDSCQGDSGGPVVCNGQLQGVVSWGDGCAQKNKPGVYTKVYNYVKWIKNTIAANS
Sequence of Kallikrein-5 (Homo sapiens) (Q9Y337 whole entry): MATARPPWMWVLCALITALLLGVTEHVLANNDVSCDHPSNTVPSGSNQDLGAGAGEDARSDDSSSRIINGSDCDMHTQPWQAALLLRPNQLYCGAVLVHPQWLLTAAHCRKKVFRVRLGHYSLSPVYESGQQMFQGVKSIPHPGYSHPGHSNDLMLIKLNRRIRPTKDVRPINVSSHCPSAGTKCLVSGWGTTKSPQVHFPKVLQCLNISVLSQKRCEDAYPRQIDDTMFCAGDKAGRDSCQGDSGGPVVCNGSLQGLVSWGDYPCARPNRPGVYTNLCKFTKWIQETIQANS
Sequence of Coagulation factor IX (Homo sapiens) (P00740 47-191 limits assumed): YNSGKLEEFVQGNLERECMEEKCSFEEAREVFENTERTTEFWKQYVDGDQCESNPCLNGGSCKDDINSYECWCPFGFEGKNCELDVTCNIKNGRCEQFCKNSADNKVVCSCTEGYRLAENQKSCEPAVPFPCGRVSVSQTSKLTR
Sequence of Coagulation factor IX (Homo sapiens) (P00740 227-461 limits assumed): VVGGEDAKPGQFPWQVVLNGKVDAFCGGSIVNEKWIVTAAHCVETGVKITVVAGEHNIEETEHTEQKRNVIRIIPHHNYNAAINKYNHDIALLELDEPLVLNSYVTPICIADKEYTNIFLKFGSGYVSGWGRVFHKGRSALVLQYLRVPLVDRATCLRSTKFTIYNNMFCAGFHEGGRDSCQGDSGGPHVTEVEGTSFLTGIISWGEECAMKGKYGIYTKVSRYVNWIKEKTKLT
Sequence of Kallikrein-7 (P49862 30-253 limits assumed): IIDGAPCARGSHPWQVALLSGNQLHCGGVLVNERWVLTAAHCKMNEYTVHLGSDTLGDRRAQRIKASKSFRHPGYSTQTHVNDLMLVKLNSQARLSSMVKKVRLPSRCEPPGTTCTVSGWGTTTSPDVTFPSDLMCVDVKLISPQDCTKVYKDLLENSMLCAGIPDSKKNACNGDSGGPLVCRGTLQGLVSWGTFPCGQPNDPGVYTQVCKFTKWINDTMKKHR
Sequence of Coagulation factor XI (Homo sapiens) (P03951 19-387 limits assumed): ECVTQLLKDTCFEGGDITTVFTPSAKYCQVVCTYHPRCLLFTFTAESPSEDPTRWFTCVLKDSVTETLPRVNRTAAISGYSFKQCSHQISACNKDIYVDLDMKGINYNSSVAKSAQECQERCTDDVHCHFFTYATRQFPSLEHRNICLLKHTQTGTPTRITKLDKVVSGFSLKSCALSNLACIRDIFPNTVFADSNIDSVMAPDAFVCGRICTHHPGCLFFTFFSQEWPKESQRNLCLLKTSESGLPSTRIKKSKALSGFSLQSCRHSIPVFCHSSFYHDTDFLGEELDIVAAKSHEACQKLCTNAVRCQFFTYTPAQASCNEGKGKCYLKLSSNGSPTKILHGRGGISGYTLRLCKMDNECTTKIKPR
Sequence of Coagulation factor XI (Homo sapiens) (P03951 388-625 limits assumed): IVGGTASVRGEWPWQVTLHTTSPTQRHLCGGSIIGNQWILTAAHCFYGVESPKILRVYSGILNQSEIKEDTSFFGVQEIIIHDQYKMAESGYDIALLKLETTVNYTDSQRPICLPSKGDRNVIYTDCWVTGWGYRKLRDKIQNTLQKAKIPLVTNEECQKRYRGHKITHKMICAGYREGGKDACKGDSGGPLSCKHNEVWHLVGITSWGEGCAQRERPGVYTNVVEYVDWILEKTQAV

| SMILES | inhibition [1] | inhibition (Kallikrein-4) | inhibition (Homo sapiens) [%] | inhibition [3] | further results |
| --- | --- | --- | --- | --- | --- |
| CC[C@H](C)[C@@H]1NC(=O)[C@@H]2CCCN2C(=O)[C@@H]2CCCN2C(=O)[C@H](CCC(=O)O)NC(=O)[C@H](CO)NC(=O)[C@H](CCCNC(=N)N)NC(=O)[C@H]([C@@H](C)O)NC(=O)[C@@H]2CSSC[C@H](NC1=O)C(=O)N[C@@H](CC(N)=O)C(=O)N1CCC[C@H]1C(=O)N[C@@H](CC(N)=O)C(=O)NCC(=O)N[C@@H]([C@@H](C)O)C(=O)N2 (cyclo(CNPNGTCTRSEPPI); disulfide 1-7) | inactive | inactive |  |  | inhibition [2]: 54% |
| CC[C@H](C)[C@@H]1NC(=O)[C@@H]2CCCN2C(=O)[C@@H]2CCCN2C(=O)CNC(=O)[C@H](CO)NC(=O)[C@H](CCCNC(=N)N)NC(=O)[C@H]([C@@H](C)O)NC(=O)[C@@H]2CSSC[C@H](NC1=O)C(=O)N[C@@H](CC(N)=O)C(=O)N1CCC[C@H]1C(=O)N[C@@H](CC(N)=O)C(=O)NCC(=O)N[C@@H]([C@@H](C)O)C(=O)N2 (cyclo(CNPNGTCTRSGPPI); disulfide 1-7) | inactive |  |  |  |  |
| CC[C@H](C)[C@@H]1NC(=O)[C@@H]2CCCN2C(=O)[C@@H]2CCCN2C(=O)[C@H](CCCCN)NC(=O)[C@H](CO)NC(=O)[C@H](CCCNC(=N)N)NC(=O)[C@H]([C@@H](C)O)NC(=O)[C@@H]2CSSC[C@H](NC1=O)C(=O)N[C@@H](CC(N)=O)C(=O)N1CCC[C@H]1C(=O)N[C@@H](CC(N)=O)C(=O)NCC(=O)N[C@@H]([C@@H](C)O)C(=O)N2 (cyclo(CNPNGTCTRSKPPI); disulfide 1-7) |  |  |  |  | inhibition (Plasminogen): 60%; inhibition [2]: 43% |
| CC[C@H](C)[C@@H]1NC(=O)[C@@H]2CCCN2C(=O)[C@@H]2CCCN2C(=O)[C@H](CC(C)C)NC(=O)[C@H](CO)NC(=O)[C@H](CCCNC(=N)N)NC(=O)[C@H]([C@@H](C)O)NC(=O)[C@@H]2CSSC[C@H](NC1=O)C(=O)N[C@@H](CC(N)=O)C(=O)N1CCC[C@H]1C(=O)N[C@@H](CC(N)=O)C(=O)NCC(=O)N[C@@H]([C@@H](C)O)C(=O)N2 (cyclo(CNPNGTCTRSLPPI); disulfide 1-7) | 52% |  |  |  |  |
| CC[C@H](C)[C@@H]1NC(=O)[C@@H]2CCCN2C(=O)[C@@H]2CCCN2C(=O)[C@H](CCCNC(=N)N)NC(=O)[C@H](CO)NC(=O)[C@H](CCCNC(=N)N)NC(=O)[C@H]([C@@H](C)O)NC(=O)[C@@H]2CSSC[C@H](NC1=O)C(=O)N[C@@H](CC(N)=O)C(=O)N1CCC[C@H]1C(=O)N[C@@H](CC(N)=O)C(=O)NCC(=O)N[C@@H]([C@@H](C)O)C(=O)N2 (cyclo(CNPNGTCTRSRPPI); disulfide 1-7) | 65% | Active | 57 |  | inhibition (Plasminogen): 23%; inhibition [2]: 43% |
| CC[C@H](C)[C@@H]1NC(=O)[C@@H]2CCCN2C(=O)[C@@H]2CCCN2C(=O)[C@H](CO)NC(=O)[C@H](CO)NC(=O)[C@H](CCCNC(=N)N)NC(=O)[C@H]([C@@H](C)O)NC(=O)[C@@H]2CSSC[C@H](NC1=O)C(=O)N[C@@H](CC(N)=O)C(=O)N1CCC[C@H]1C(=O)N[C@@H](CC(N)=O)C(=O)NCC(=O)N[C@@H]([C@@H](C)O)C(=O)N2 (cyclo(CNPNGTCTRSSPPI); disulfide 1-7) |  |  |  | inactive | inhibition (Kallikrein-7): Active |
| CC[C@H](C)[C@@H]1NC(=O)[C@@H]2CCCN2C(=O)[C@@H]2CCCN2C(=O)[C@H](Cc2c[nH]c3ccccc23)NC(=O)[C@H](CO)NC(=O)[C@H](CCCNC(=N)N)NC(=O)[C@H]([C@@H](C)O)NC(=O)[C@@H]2CSSC[C@H](NC1=O)C(=O)N[C@@H](CC(N)=O)C(=O)N1CCC[C@H]1C(=O)N[C@@H](CC(N)=O)C(=O)NCC(=O)N[C@@H]([C@@H](C)O)C(=O)N2 (cyclo(CNPNGTCTRSWPPI); disulfide 1-7) |  |  | 63 | Active | inhibition [6]: 87% |

Further lines, with some results ahead:

| inhibition [1] | inhibition (Kallikrein-4) | inhibition (Homo sapiens) [%] | inhibition [3] | SMILES | further results |
| --- | --- | --- | --- | --- | --- |
|  | Active | 52 | Active | CC[C@H](C)[C@@H]1NC(=O)[C@@H]2CCCN2C(=O)[C@@H]2CCCN2C(=O)[C@H](Cc2ccccc2)NC(=O)[C@H](CO)NC(=O)[C@H](CCCNC(=N)N)NC(=O)[C@H]([C@@H](C)O)NC(=O)[C@@H]2CSSC[C@H](NC1=O)C(=O)N[C@@H](CC(N)=O)C(=O)N1CCC[C@H]1C(=O)N[C@@H](CC(N)=O)C(=O)NCC(=O)N[C@@H]([C@@H](C)O)C(=O)N2 (cyclo(CNPNGTCTRSFPPI); disulfide 1-7) | inhibition (Prothrombin): 41% |
|  |  |  | inactive | CC[C@H](C)[C@@H]1NC(=O)[C@@H]2CCCN2C(=O)[C@@H]2CCCN2C(=O)[C@H](Cc2cnc[nH]2)NC(=O)[C@H](CO)NC(=O)[C@H](CCCNC(=N)N)NC(=O)[C@H]([C@@H](C)O)NC(=O)[C@@H]2CSSC[C@H](NC1=O)C(=O)N[C@@H](CC(N)=O)C(=O)N1CCC[C@H]1C(=O)N[C@@H](CC(N)=O)C(=O)NCC(=O)N[C@@H]([C@@H](C)O)C(=O)N2 (cyclo(CNPNGTCTRSHPPI); disulfide 1-7) | inhibition (Kallikrein-7): Active |
| inactive |  |  |  | CC[C@H](C)[C@@H]1NC(=O)[C@@H]2CCCN2C(=O)[C@@H]2CCCN2C(=O)[C@@H]2CCCN2C(=O)[C@H](CO)NC(=O)[C@H](CCCNC(=N)N)NC(=O)[C@H]([C@@H](C)O)NC(=O)[C@@H]2CSSC[C@H](NC1=O)C(=O)N[C@@H](CC(N)=O)C(=O)N1CCC[C@H]1C(=O)N[C@@H](CC(N)=O)C(=O)NCC(=O)N[C@@H]([C@@H](C)O)C(=O)N2 (cyclo(CNPNGTCTRSPPPI); disulfide 1-7) |  |
|  |  |  | inactive | CC[C@H](C)[C@@H]1NC(=O)[C@@H]2CCCN2C(=O)[C@@H]2CCCN2C(=O)[C@H](CCC(N)=O)NC(=O)[C@H](CO)NC(=O)[C@H](CCCNC(=N)N)NC(=O)[C@H]([C@@H](C)O)NC(=O)[C@@H]2CSSC[C@H](NC1=O)C(=O)N[C@@H](CC(N)=O)C(=O)N1CCC[C@H]1C(=O)N[C@@H](CC(N)=O)C(=O)NCC(=O)N[C@@H]([C@@H](C)O)C(=O)N2 (cyclo(CNPNGTCTRSQPPI); disulfide 1-7) | inhibition (Kallikrein-7): Active |
| 75% | 92% | 76 |  | CC[C@H](C)[C@@H]1NC(=O)[C@@H]2CCCN2C(=O)[C@@H]2CCCN2C(=O)[C@H](C(C)C)NC(=O)[C@H](CO)NC(=O)[C@H](CCCNC(=N)N)NC(=O)[C@H]([C@@H](C)O)NC(=O)[C@@H]2CSSC[C@H](NC1=O)C(=O)N[C@@H](CC(N)=O)C(=O)N1CCC[C@H]1C(=O)N[C@@H](CC(N)=O)C(=O)NCC(=O)N[C@@H]([C@@H](C)O)C(=O)N2 (cyclo(CNPNGTCTRSVPPI); disulfide 1-7) | inhibition [4]: 54%; inhibition (Plasminogen): 25%; inhibition [5]: 65%; inhibition [6]: 80% |
|  | Active |  | Active | CC[C@H](C)[C@@H]1NC(=O)[C@@H]2CCCN2C(=O)[C@@H]2CCCN2C(=O)[C@H](Cc2ccc(-c3ccccc3)cc2)NC(=O)[C@H](CO)NC(=O)[C@H](CCCNC(=N)N)NC(=O)[C@H]([C@@H](C)O)NC(=O)[C@@H]2CSSC[C@H](NC1=O)C(=O)N[C@@H](CC(N)=O)C(=O)N1CCC[C@H]1C(=O)N[C@@H](CC(N)=O)C(=O)NCC(=O)N[C@@H]([C@@H](C)O)C(=O)N2 (cyclo([Bip]PPICNPNGTCTRS); disulfide 5-11) | inhibition [6]: 80% |
